In paper PMC4604100, “Melanocortin agonists stimulate lipolysis in human adipose tissue explants but not in adipocytes” (BMC Research Notes, 2015):
“Also recorded” adds a separate entry of the source. Where no end group is shown, it is not given here.

Columns and labels:
[1] = system: intact human white adipose tissue explants; experiment: NEFA release in human WAT explants (lipolysis); type: cell-based; conditions: for increase in NEFA release compared to vehicle: 100 nM, 3 h stimulation, mean of 6 (α-MSH 3) independent experiments in triplicate wells; for increase in NEFA release compared to vehicle / stimulation of NEFA release / lipolysis (in words): subcutaneous explants from non-obese females; for stimulation of NEFA release / lipolysis (in words): 100 nM–10 μM, 3 h, one-tailed t test vs. vehicle; for Emax of lipolysis compared to isoproterenol (in words): intact human WAT explants
Method: (§1) Adipose tissue biopsies used for stimulation of lipolysis were taken from the subcutaneous abdominal region by needle aspiration as previously described. The experimental group consisted of 6 non-diabetic females with a normal/preobese BMI (average BMI = 25.5). All biopsies were transported in sterile containers to the laboratory within 30 min after removal. The biopsies were washed repeatedly with isotonic saline and were used for subsequent culture.
(§2) Induction of NEFA and glycerol release in adipocytes and intact adipose tissue explants was used as a measure of lipolysis with β-adrenergic agonist isoproterenol as a positive control as previously described. When using propranolol, 10 μM was used as final concentration. 250 mg of human adipose tissue was placed in 15 mL tubes, immediately covered with 2.5 mL of preheated (37 °C) hyclone media and preincubated for 24 h. After 24 h, the media was replenished and explants were stimulated with the indicated melanocortin peptide for 3 h before harvesting the supernatant for NEFA and glycerol analysis. In house testing has shown no indications of hypoxia when stimulating explants (data not shown). All test compounds were dissolved to 4 mM in DMSO (highest DMSO concentration of 0.25 % in the assay) and diluted in DPBS buffer + 2 % bovine serum albumin (BSA). Human subcutaneous adipocytes purchased from Zenbio Inc., were used in stimulation of lipolysis (n = 4). These adipocytes have been isolated from obese males. When receiving the cells (and partially during transportation), the cells was differentiated from a pre-state to a mature state before the cells are used for experiments. The cells were handled according to the description from ZenBio Inc. Two hours was chosen as the optimal incubation time span for primary adipocytes, based on similar experiments in other species. […] Measures of melanocortin-stimulated glycerol release were added in explant lipolysis studies.
(§3) Data from the NEFA and the glycerol assay were obtained using the protocol supplied by the manufactures. Released NEFAs were analyzed in Graphpad Prism and one-tailed t test was used to calculate statistical significance between 2 groups (*p < 0.05, **p < 0.01, ***p < 0.001, no * indicates insignificance). Ki values in bindings studies were calculated as Ki = IC50/1 + [radioligand]/Kd. Data from binding studies was analyzed in Graphpad Prism.

[2] = system: human subcutaneous adipocytes; experiment: NEFA release in differentiated human subcutaneous adipocytes; type: cell-based; conditions: for stimulation of NEFA release (in words): human subcutaneous adipocytes (ZenBio, obese males), 1 pM–10 μM, n = 4
Method: as §2, §3

WAT = system: WAT; set-up: method as in earlier work; conditions: intranasal administration; ref [50] Wellhöner et al.; cited from earlier work
Description: However, it should be taken into account, that there may be downstream MCR mechanisms of propranolol that are unknown, which is a precaution using this antagonist. Depleting the explants with reserpine before stimulation could add additional confidence to the ...

[3] = system: human white adipose tissue (WAT) explants; experiment: NEFA release in human WAT explants ± propranolol; type: cell-based
Method: as §1, §2, §3

[4] = system: mesenchymal stem cell-derived adipocytes; conditions: ref [52] Hoch et al.; cited from earlier work
Description: (§4) The lack of lipolytic response seen in adipocytes is supported by previous studies by Hoch et al. [[5 ...

[5] = system: mesenchymal stem cell-derived adipocytes; intact adipose tissue explants; conditions: mesenchymal stem cell-derived adipocytes or intact adipose tissue explants; ref [52] Hoch et al.; cited from earlier work
Description: as §4

[6] = system: adipocytes or intact human adipose tissue; conditions: own finding "supported by other studies", ref [51], [52]; cited from earlier work
Description: (§5) ACTH is a larger peptide than both α-MSH and the synthetic melanocortin compounds used in this study.

[7] = system: adipocytes isolated from subcutaneous adipose tissue; conditions: adipocytes isolated from subcutaneous adipose tissue of non-diabetic human; ref [53] Xue et al.; cited from earlier work
Description: as §5

[8] = system: intact human white adipose tissue explants; experiment: Glycerol release in human WAT explants (lipolysis); type: cell-based; conditions: subcutaneous explants from non-obese females, 100 nM–10 μM, 3 h; mean of 2 independent experiments in triplicate wells
Method: as §1
Induction of NEFA and glycerol release in adipocytes and intact adipose tissue explants was used as a measure of lipolysis with β-adrenergic agonist isoproterenol as a positive control as previously described. When using propranolol, 10 μM was used as final concentration. 250 mg of human adipose tissue was placed in 15 mL tubes, immediately covered with 2.5 mL of preheated (37 °C) hyclone media and preincubated for 24 h. After 24 h, the media was replenished and explants were stimulated with the indicated melanocortin peptide for 3 h before harvesting the supernatant for NEFA and glycerol analysis. In house testing has shown no indications of hypoxia when stimulating explants (data not shown). All test compounds were dissolved to 4 mM in DMSO (highest DMSO concentration of 0.25 % in the assay) and diluted in DPBS buffer + 2 % bovine serum albumin (BSA). Human subcutaneous adipocytes purchased from Zenbio Inc., were used in stimulation of lipolysis (n = 4). These adipocytes have been isolated from obese males. When receiving the cells (and partially during transportation), the cells was differentiated from a pre-state to a mature state before the cells are used for experiments. […]
as §3

primary mouse adipocytes = conditions: mediated by MC2R and MC5R, ref [35], [37], [38]; cited from earlier work
Description: as §4

rabbit adipocytes = conditions: ref [39] Richter et al.; cited from earlier work
Description: MC5R is extensively distributed in the periphery, and is reported to regulate sebaceous gland secretion and fatty acid oxidation in skeletal muscle. The melanocortin system has a well-established lipolytic effect in rodent adipose tissues. Studies in murine primary adipocytes and differentiated 3T3-L1 adipocytes show a direct lipolytic effect of MC2R and MC5R when stimulated by various endogenous and synthetic melanocortin agonists.

human MCRs = experiment: Binding rank order across human MCRs; conditions: order of affinity
Method: (§6) The human MC1R, MC3R, MC4R and MC5R were cloned by PCR and subcloned into the pcDNA3 expression vector, as previously described by Conde-Frieboes et al.. Cells stably expressing the human MCRs were generated by transfecting the expression vector into BHK570 cells (ATTC) and using 1 mg/mL G418 to select for stable clones. The stable cell lines were cultured in DMEM with glutamax, 10 % FCS, 1 % pen/strep, and 1 mg/mL G418 at 37 °C and 5 % CO2. […] Test compounds were dissolved to a 4 mM concentration in DMSO and diluted in a receptor specific binding buffer. […] A filtration system was employed to separate bound from unbound radioligand.
(§7) Data analysis and statistics

MC3R = conditions: antagonist; ref [47]; cited from earlier work
hMC1R = biological target: T1, hMC1R (Homo sapiens, UniProt Q01726); experiment: Competition binding of 125I-NDP-α-MSH to membranes of BHK570 cells expressing hMC1R; conditions: competition with fixed 125I-NDP-α-MSH, test compound 1 pM–10 μM, filtration, average of repeated independent experiments ± SEM, n = 3 (α-MSH n = 18)
T1 construct: expressed in transfected cells
Method: as §6, §7

MC5R = conditions: agonist; ref [47]; cited from earlier work
MC4R over MC3R = conditions: factor; ref [46] Greenfield et al.; cited from earlier work
MC4R over MC1R = conditions: factor; ref [46] Greenfield et al.; cited from earlier work

T1 sequence (Q01726 whole entry): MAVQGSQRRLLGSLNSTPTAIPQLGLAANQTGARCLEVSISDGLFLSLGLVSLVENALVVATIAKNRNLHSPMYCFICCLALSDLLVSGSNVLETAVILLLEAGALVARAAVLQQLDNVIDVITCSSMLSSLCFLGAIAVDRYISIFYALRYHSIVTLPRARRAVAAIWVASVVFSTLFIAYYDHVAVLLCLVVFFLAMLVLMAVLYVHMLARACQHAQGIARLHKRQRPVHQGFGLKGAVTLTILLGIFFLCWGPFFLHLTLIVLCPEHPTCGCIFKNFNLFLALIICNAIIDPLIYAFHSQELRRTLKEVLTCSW

CC(C)NCC(O)c1ccc(O)c(O)c1 (stereo not drawn) [isoproterenol]
increase in NEFA release compared to vehicle [1]: 114% | stimulation of NEFA release / lipolysis (in words) [1]: potent release of NEFA | stimulation of NEFA release (in words) [2]: potent release of NEFA

MSH/ACTH(4-10): intranasally administered melanocortin fragment in Wellhöner et al. (MEHFRWG; Corticotropin; UniProt P01189 141-147, looked up, fragment)
glycerol concentrations in WAT (in words) (WAT): increased glycerol concentrations in WAT

CC(C)NCC(O)COc1cccc2ccccc12 (stereo not drawn) [propranolol]
decrease of LY2112688-stimulated NEFA release (in words) ([3]; 10 μM propranolol + LY2112688 (100 nM–10 μM), female human subcutaneous explants, 3 independent experiments in triplicate wells): did not significantly decrease the release of NEFA | decrease of PG-901-stimulated NEFA release (in words) ([3]; 10 μM propranolol + PG-901 (100 nM–10 μM), female human subcutaneous explants, 3 independent experiments in triplicate wells): significantly decreased the release of NEFA | decrease of isoproterenol-stimulated NEFA release (in words) ([3]; 10 μM propranolol + isoproterenol, female human subcutaneous explants, 3 independent experiments in triplicate wells): significantly decreased the release of NEFA | inhibition of NEFA release on co-incubation (in words) ([3]; propranolol co-incubation, MC4R/MC5R-mediated lipolysis, overview figure): inhibits NEFA release

NDP-α-MSH
cAMP response (in words) [4]: weak cAMP response | effect on lipolysis (in words) [5]: did not find an effect on lipolysis

SYSMEHFRWGKPVGKKRRPVKVYPNGAEDESAEAFPLEF [ACTH]
lipolytic capacity (in words) [6]: no lipolytic capacity | stimulation of lipolysis (in words) [7]: stimulated lipolysis | lipolytic capacity (in words) ([1]; intact human adipose tissue): no lipolytic capacity | stimulation of NEFA release / lipolysis (in words) [1]: failed to stimulate NEFA | stimulation of glycerol release (in words) [8]: failed to stimulate NEFA and glycerol release | lipolytic capacity (in words) (primary mouse adipocytes): lipolytic capacity | lipolytic capacity (in words) ([2]; adipocytes): no lipolytic capacity | stimulation of NEFA release (in words) [2]: failed to stimulate NEFA release | effect on lipolysis (in words) (rabbit adipocytes): direct effect | binding rank order (human MCRs): MC1R > MC4R > MC3R > MC5R

CCCC[C@H](NC(C)=O)C(=O)N[C@H]1CC(=O)NCCCC[C@@H](C(N)=O)NC(=O)[C@H](Cc2c[nH]c3ccccc23)NC(=O)[C@H](CCCNC(=N)N)NC(=O)[C@@H](Cc2ccc3ccccc3c2)NC(=O)[C@@H]2CCCN2C1=O [PG-901]
increase in NEFA release compared to vehicle [1]: 38% | Emax of lipolysis compared to isoproterenol (in words) [1]: relatively lower Emax | stimulation of NEFA release / lipolysis (in words) [1]: significantly stimulated lipolysis; also recorded: stimulated a low, though significant, release of NEFA; also recorded: significantly stimulate release of NEFA | binding to MC3R (in words) (MC3R): high affinity | stimulation of glycerol release (in words) [8]: stimulated release of glycerol | Ki (hMC1R): 2700 ± 153 nM | stimulation of NEFA release (in words) [2]: failed to stimulate NEFA release | binding to MC5R (in words) (MC5R): high affinity

CC(=O)N[C@H](CCCNC(=N)N)C(=O)N[C@H]1CSSC[C@@H](C(N)=O)NC(=O)[C@H](Cc2c[nH]c3ccccc23)NC(=O)[C@H](CCCNC(=N)N)NC(=O)[C@@H](Cc2ccccc2)NC(=O)[C@H](Cc2c[nH]cn2)NC(=O)[C@H](CCC(=O)O)NC1=O [LY2112688]
increase in NEFA release compared to vehicle [1]: 46% | Emax of lipolysis compared to isoproterenol (in words) [1]: relatively lower Emax | stimulation of NEFA release / lipolysis (in words) [1]: significantly stimulated lipolysis; also recorded: stimulated a low, though significant, release of NEFA; also recorded: significantly stimulate release of NEFA | stimulation of glycerol release (in words) [8]: stimulated release of glycerol | increased affinity for MC4R over MC3R (MC4R over MC3R): more than 100 | stimulation of NEFA release (in words) [2]: failed to stimulate NEFA release | increased affinity for MC4R over MC1R (MC4R over MC1R): more than 30 | binding rank order (human MCRs): MC4R > MC3R > MC1R
